“And” between values parts separate entries of the source, which are not always exact repeats. Identical values can stand only once.
Columns and labels:
[1] = system: TNF-α, IL-6, IL-1β, GM-CSF, CXCL-1, CXCL-2, CCL-2 and MMP-9 in lung tissue; experiment: LPS-induced cytokines, chemokines and MMP-9 in mouse lung homogenates (Luminex, ELISA); settings: for CCL2 % reduction / CXCL1 % reduction / CXCL2 % reduction / GM-CSF % reduction / IL-1β % reduction / IL-6 % reduction / MMP9 % reduction / TNFα % reduction / CCL2 / CXCL1 / CXCL2 / GM-CSF / IL-1β / IL-6 / MMP9 / TNFα / CCL2 Mean / CXCL1, Mean / CXCL2, Mean / GM-CSF Mean / IL-1β Mean / IL-6 Mean / MMP9, Mean / TNFα Mean: lung homogenate, LPS; for CCL2 / CXCL1 / CXCL2 / GM-CSF / IL-1β / IL-6 / MMP9 / TNFα: individual animal, listed as Lef; for CCL2 Mean / CXCL1, Mean / CXCL2, Mean / GM-CSF Mean / IL-1β Mean / IL-6 Mean / MMP9, Mean / TNFα Mean: mean of 8
Protocol: To induce pulmonary neutrophilia, mice in the control group received intranasal (IN) 50 μL saline, and all other animals received 5 μg LPS/50 μL saline IN per mouse.
After bronchoalveolar lavage, lungs were removed, weighed, snap frozen, and stored at −80°C until analysis. To homogenize the tissue, the frozen lungs were thawed and placed in Precellys CK28 Hard Tissue tubes (BERTIN Instruments, Montigny-le-Bretonneux, France) in 1 mL PBS (Gibco, Life Technologies, Paisley, UK) supplemented with protease inhibitors (Halt™ Protease Inhibitor Cocktail [100×]; Thermo Fisher Scientific, Rockford, IL, USA). A Precellys homogenizer (BERTIN Instruments) was used, shaking at 6800 rpm for three 30-second pulses separated by 15-second pauses. After homogenization, samples were centrifuged at 18,000×g for 10 minutes at 4°C, and the supernatants were collected for analysis.
Concentrations of tumor necrosis factor (TNF)-α, IL-6, granulocyte-macrophage colony-stimulating factor (GM-CSF), chemokine (C-X-C motif) ligand (CXCL)-1, CXCL-2, and chemokine (C-C motif) ligand (CCL)-2 in mouse lung homogenates were analyzed with the Mouse Premixed Multi-Analyte Kit (R&D Systems, Minneapolis, MN, USA) per the manufacturer’s protocol and using a Luminex 200 System (Luminex Corporation, Austin, TX, USA). Cytokine and chemokine concentrations were determined from blank-corrected median fluorescence intensity of each sample via xPONENT® software (Luminex Corporation), interpolating from standard curves generated with a 5-parameter logistic curve-fit.
Mouse Total MMP (matrix metalloprotease)-9 and IL-1β/IL-1F2 DuoSet ELISA (enzyme-linked immunosorbent assay) kits (R&D Systems) were used to measure concentrations of MMP-9 and IL-1β, respectively, in lung homogenates per the manufacturer’s protocols. Absorbance at 450 nm was measured using the SpectraMax i3 (Molecular Devices, San Jose, CA, USA). Concentrations of MMP-9 and IL-1β in samples were determined by interpolation from standard curves.
Differences between treated versus vehicle groups were determined using the Mann-Whitney test and were considered statistically significant when P<0.05. Outliers in the analysis of cytokine and chemokine concentrations were identified using the Grubbs test. No criteria were set for inclusion/exclusion of animals during the experiment or data points during the analysis.

human PBMCs = experiment: Cytotoxicity in human PBMCs (adenylate kinase release, ToxiLight); format: cell-based; settings: for fold-change of adenylate kinase release at test concentration vs vehicle control, Mean ± SEM: human PBMCs, n=2
Protocol: The effect of t est compounds on cell viabilit y of J 774.2 macrophages and human PBMCs […]
was determined b y comp aring th e aden yl ate kinas e signal obtain ed in the p resence of diff er ent concentrations of compounds with those obtained in DMSO (vehicle) control. Signals were […]
divided,and the results were ex pressed as fold-change versus v ehicle con trol .

[2] = all doses (10, 30, 100 mg/kg SC)
[3] = all doses tested (10, 30, 100 mg/kg SC), vs vehicle control

C=C[C@]1(C)C[C@@H](OC(=O)CS[C@@H]2CC[C@@H](N)C[C@H]2O)[C@]2(C)[C@H](C)CC[C@]3(CCC(=O)[C@H]32)[C@@H](C)[C@@H]1O [Lefamulin]
levels of all cytokines and chemokines assessed, as well as of MMP-9, in lung homogenate ([1]; 10, 30, and 100 mg/kg SC, vs vehicle): significantly reduced
MMP-9 levels in lung homogenate ([1]; 30 and 100 mg/kg SC): Significant reductions
IL-1β concentrations in lung homogenate [1, 2]: dose-dependent effect
chemokines and GM-CSF in lung homogenate [1, 2]: Significant reductions
IL-6 concentrations in lung homogenate [1, 3]: significantly reduced
TNF-α concentrations in lung homogenate [1, 3]: significantly reduced
IL-1β concentrations in lung homogenate ([1]; highest dose, 100 mg/kg SC): significant inhibition
CCL2 % reduction ([1]; 10 mg/kg): 93%
CXCL1 % reduction ([1]; 10 mg/kg): 62%
CXCL2 % reduction ([1]; 10 mg/kg): 73%
GM-CSF % reduction ([1]; 10 mg/kg): 85%
IL-1β % reduction ([1]; 10 mg/kg): -19%
IL-6 % reduction ([1]; 10 mg/kg): 106%
MMP9 % reduction ([1]; 10 mg/kg): 8%
TNFα % reduction ([1]; 10 mg/kg): 79%
CCL2 ([1]; 10 mg/kg): 1377.65 pg/mL and 537.39 pg/mL and 646.70 pg/mL and 438.83 pg/mL and 518.31 pg/mL and 1456.64 pg/mL and 908.74 pg/mL and 229.87 pg/mL
CXCL1 ([1]; 10 mg/kg): 6971.93 pg/mL and 4329.90 pg/mL and 5523.90 pg/mL and 4582.09 pg/mL and 5582.50 pg/mL and 5633.76 pg/mL and 4136.19 pg/mL and 3104.94 pg/mL
CXCL2 ([1]; 10 mg/kg): 5052.98 pg/mL and 3065.52 pg/mL and 3267.04 pg/mL and 2748.29 pg/mL and 3142.03 pg/mL and 3891.00 pg/mL and 3712.25 pg/mL and 1806.80 pg/mL
GM-CSF ([1]; 10 mg/kg): 67.71 pg/mL and 29.84 pg/mL and 24.75 pg/mL and 26.44 pg/mL and 92.13 pg/mL and 45.24 pg/mL
IL-1β ([1]; 10 mg/kg): 13048 pg/mL and 11802 pg/mL and 8955 pg/mL and 11618 pg/mL and 14924 pg/mL and 15796 pg/mL and 14205 pg/mL and 13632 pg/mL
IL-6 ([1]; 10 mg/kg): 250.42 pg/mL and 122.57 pg/mL and 71.56 pg/mL and 75.97 pg/mL and 378.35 pg/mL and 273.00 pg/mL and 109.22 pg/mL
MMP9 ([1]; 10 mg/kg): 2581 pg/mL and 2222 pg/mL and 2051 pg/mL and 2196 pg/mL and 2373 pg/mL and 1878 pg/mL and 2354 pg/mL and 2294 pg/mL
TNFα ([1]; 10 mg/kg): 82.13 pg/mL and 385.92 pg/mL and 198.20 pg/mL and 183.71 pg/mL and 132.63 pg/mL and 135.37 pg/mL and 337.98 pg/mL and 306.86 pg/mL
CCL2 Mean ([1]; 10 mg/kg): 764 pg/mL
CXCL1, Mean ([1]; 10 mg/kg): 4983 pg/mL
CXCL2, Mean ([1]; 10 mg/kg): 3336 pg/mL
GM-CSF Mean ([1]; 10 mg/kg): 43 pg/mL
IL-1β Mean ([1]; 10 mg/kg): 12997 pg/mL
IL-6 Mean ([1]; 10 mg/kg): 175 pg/mL
MMP9, Mean ([1]; 10 mg/kg): 2244 pg/mL
TNFα Mean ([1]; 10 mg/kg): 220 pg/mL
CCL2 % reduction ([1]; 30 mg/kg): 105%
CXCL1 % reduction ([1]; 30 mg/kg): 52%
CXCL2 % reduction ([1]; 30 mg/kg): 61%
GM-CSF % reduction ([1]; 30 mg/kg): 95%
IL-1β % reduction ([1]; 30 mg/kg): 8%
IL-6 % reduction ([1]; 30 mg/kg): 120%
MMP9 % reduction ([1]; 30 mg/kg): 26%
TNFα % reduction ([1]; 30 mg/kg): 77%
CCL2 ([1]; 30 mg/kg): 664.18 pg/mL and 229.87 pg/mL and 256.42 pg/mL and 281.81 pg/mL and 306.24 pg/mL and 172.04 pg/mL
CXCL1 ([1]; 30 mg/kg): 9099.72 pg/mL and 7572.60 pg/mL and 6087.32 pg/mL and 5765.52 pg/mL and 5509.25 pg/mL and 4685.62 pg/mL and 6328.54 pg/mL and 4359.63 pg/mL
CXCL2 ([1]; 30 mg/kg): 7789.00 pg/mL and 4810.48 pg/mL and 4106.80 pg/mL and 4675.09 pg/mL and 4634.09 pg/mL and 3899.14 pg/mL and 3943.89 pg/mL and 3825.96 pg/mL
GM-CSF ([1]; 30 mg/kg): 46.10 pg/mL and 24.75 pg/mL and 27.29 pg/mL and 23.05 pg/mL and 21.37 pg/mL and 16.32 pg/mL and 9.66 pg/mL
IL-1β ([1]; 30 mg/kg): 12246 pg/mL and 8161 pg/mL and 9564 pg/mL and 10656 pg/mL and 10104 pg/mL and 9202 pg/mL and 9081 pg/mL and 11831 pg/mL
IL-6 ([1]; 30 mg/kg): 118.12 pg/mL and 87.03 pg/mL and 60.54 pg/mL and 67.15 pg/mL and 58.34 pg/mL and 45.17 pg/mL and 29.90 pg/mL and 48.46 pg/mL
MMP9 ([1]; 30 mg/kg): 2129 pg/mL and 1886 pg/mL and 1848 pg/mL and 1924 pg/mL and 1726 pg/mL and 1867 pg/mL and 2081 pg/mL and 2097 pg/mL
TNFα ([1]; 30 mg/kg): 186.35 pg/mL and 395.67 pg/mL and 202.12 pg/mL and 215.17 pg/mL and 246.13 pg/mL and 275.41 pg/mL and 284.25 pg/mL and 181.07 pg/mL
CCL2 Mean ([1]; 30 mg/kg): 296 pg/mL
CXCL1, Mean ([1]; 30 mg/kg): 6176 pg/mL
CXCL2, Mean ([1]; 30 mg/kg): 4711 pg/mL
GM-CSF Mean ([1]; 30 mg/kg): 23 pg/mL
IL-1β Mean ([1]; 30 mg/kg): 10106 pg/mL
IL-6 Mean ([1]; 30 mg/kg): 64 pg/mL
MMP9, Mean ([1]; 30 mg/kg): 1945 pg/mL
TNFα Mean ([1]; 30 mg/kg): 248 pg/mL
CCL2 % reduction ([1]; 100 mg/kg): 107%
CXCL1 % reduction ([1]; 100 mg/kg): 57%
CXCL2 % reduction ([1]; 100 mg/kg): 64%
GM-CSF % reduction ([1]; 100 mg/kg): 96%
IL-1β % reduction ([1]; 100 mg/kg): 24%
IL-6 % reduction ([1]; 100 mg/kg): 117%
MMP9 % reduction ([1]; 100 mg/kg): 53%
TNFα % reduction ([1]; 100 mg/kg): 81%
CCL2 ([1]; 100 mg/kg): 329.86 pg/mL and 256.42 pg/mL and 172.04 pg/mL and 139.64 pg/mL
CXCL1 ([1]; 100 mg/kg): 7499.26 pg/mL and 6087.32 pg/mL and 5076.24 pg/mL and 5758.20 pg/mL and 5443.29 pg/mL and 4906.96 pg/mL and 4656.06 pg/mL and 5472.61 pg/mL
CXCL2 ([1]; 100 mg/kg): 5382.65 pg/mL and 5518.93 pg/mL and 4695.59 pg/mL and 3380.13 pg/mL and 4061.97 pg/mL and 3178.30 pg/mL and 3700.08 pg/mL and 4913.16 pg/mL
GM-CSF ([1]; 100 mg/kg): 21.37 pg/mL and 19.68 pg/mL and 33.25 pg/mL and 14.65 pg/mL and 16.32 pg/mL and 11.32 pg/mL
IL-1β ([1]; 100 mg/kg): 10645 pg/mL and 6459 pg/mL and 7591 pg/mL and 8558 pg/mL and 9892 pg/mL and 7429 pg/mL and 7844 pg/mL and 8730 pg/mL
IL-6 ([1]; 100 mg/kg): 135.95 pg/mL and 78.18 pg/mL and 127.03 pg/mL and 99.22 pg/mL and 71.56 pg/mL and 56.14 pg/mL and 105.88 pg/mL
MMP9 ([1]; 100 mg/kg): 2385 pg/mL and 1353 pg/mL and 1095 pg/mL and 1490 pg/mL and 1351 pg/mL and 1232 pg/mL and 1807 pg/mL and 1236 pg/mL
TNFα ([1]; 100 mg/kg): 204.74 pg/mL and 121.62 pg/mL and 366.33 pg/mL and 248.69 pg/mL and 116.08 pg/mL and 181.07 pg/mL and 124.38 pg/mL and 233.28 pg/mL
CCL2 Mean ([1]; 100 mg/kg): 209 pg/mL
CXCL1, Mean ([1]; 100 mg/kg): 5612 pg/mL
CXCL2, Mean ([1]; 100 mg/kg): 4354 pg/mL
GM-CSF Mean ([1]; 100 mg/kg): 19 pg/mL
IL-1β Mean ([1]; 100 mg/kg): 8394 pg/mL
IL-6 Mean ([1]; 100 mg/kg): 91 pg/mL
MMP9, Mean ([1]; 100 mg/kg): 1494 pg/mL
TNFα Mean ([1]; 100 mg/kg): 200 pg/mL
cell viability (human PBMCs; PBMCs, 100 μM): reduced
fold-change of adenylate kinase release at test concentration vs vehicle control, Mean ± SEM (human PBMCs; 0.03 µM): 1.07 ± 0.03 fold-change
fold-change of adenylate kinase release at test concentration vs vehicle control, Mean ± SEM (human PBMCs; 0.1 µM): 1.04 ± 0.01 fold-change
fold-change of adenylate kinase release at test concentration vs vehicle control, Mean ± SEM (human PBMCs; 0.3 µM): 1.03 ± 0.02 fold-change
fold-change of adenylate kinase release at test concentration vs vehicle control, Mean ± SEM (human PBMCs; 1 µM): 1.00 ± 0.01 fold-change
fold-change of adenylate kinase release at test concentration vs vehicle control, Mean ± SEM (human PBMCs; 3 µM): 0.95 ± 0.01 fold-change
fold-change of adenylate kinase release at test concentration vs vehicle control, Mean ± SEM (human PBMCs; 10 µM): 0.93 ± 0.01 fold-change
fold-change of adenylate kinase release at test concentration vs vehicle control, Mean ± SEM (human PBMCs; 30 µM): 0.92 ± 0.03 fold-change
fold-change of adenylate kinase release at test concentration vs vehicle control, Mean ± SEM (human PBMCs; 100 µM): 1.20 ± 0.03 fold-change

Reference: paper PMC8480901 (PLoS ONE, 2021)
